Measurements from patent US10792303B2, “Compositions and methods for inducing beige or brown fat tissue” (Logick Energetics, priority 2015, dated 2020).

System: KS-483 cells
Assay: qPCR gene expression in KS-483 cells after compound stimulation
Assay type: cell-based
Conditions: 3 days stimulation, Indo 5 uM; for BMP-4 gene expression (control = 1) / BMP-7 gene expression (control = 1) / CD36 gene expression (control = 1) / CEBP gene expression (control = 1) / CIDEA gene expression (control = 1) / DKK2 gene expression (control = 1) / FABP-4 gene expression (control = 1) / FGF21 gene expression (control = 1) / LPL gene expression (control = 1) / LRP5 gene expression (control = 1) / O3FAR1 gene expression (control = 1) / PLIN1 gene expression (control = 1) / PPAR-γ gene expression (control = 1) / PRDM16 gene expression (control = 1) / PpargC1α/PGC-1α gene expression (control = 1) / SCD1 gene expression (control = 1) / SLC2A4 gene expression (control = 1) / WNT5a gene expression (control = 1) / WNT6 gene expression (control = 1) / WNT10a gene expression (control = 1) / WNT11 gene expression (control = 1) / Adipoq gene expression (control = 1) / CFD gene expression (control = 1) / Noggin gene expression (control = 1) / UCP-1 gene expression (control = 1): Pentosan 5 ug/ml; for BMP-2 gene expression (control = 1): Pentosan 0.05 ug/ml
Protocol: The genes in KS-483 cells were assessed for up- or downregulation after stimulation with compound. Briefly, KS-483 cells were cultured under standard culturing conditions in α-MEM medium supplemented with glutamax, penicillin/streptomycin and 10% heat-inactivated Foetal Calf Serum (FCS).
For gene-expression analysis cells were seeded at 9210 cells/cm2 in 6-wells culture plates (Costar). At day 4, when cells were confluent, cells were stimulated with compounds in the presence of 5 μg/ml vitamin C. After 72 hours stimulation, cells were washed with PBS and subsequently RNA from the cells was isolated in 1 ml TRIzol (Invitrogen) following a standard TRIzol isolation protocol. RNA concentration and purity was assessed on a Nanodrop 1000 (Thermo Scientific). Single strand cDNA was synthesized from the isolated mRNA using reverse transcriptase (RT). Subsequently, SYBR green real-time PCR, also known as qPCR, was used to quantify differential gene expression of selected genes normalized to the expression of the housekeeping gene beta-2 microglobulin (b2m). […] The qPCR protocol applied was as follows:
15 minutes at 95° C. to activate Taq DNA polymerase, inactivate reverse transcriptase and denaturate the cDNA template.
40 cycles of 15 seconds denaturation at 95° C., 30 seconds annealing at 55° C. and 30 seconds of extension at 72° C.
At the melting point, the two strands of DNA will separate and the fluorescence rapidly decreases. Presence of multiple melting point, pointing at contaminated end-products was verified.
The threshold cycle or CT value (the cycle at which a statistically significant increase in normalized fluorescence intensity is first detected) were determined and relative fold change of genes of interest compared to b2m was determined.
The control has an expression of 1; values higher than 1 imply up-regulation of the gene; values lower than 1 imply down-regulation of genes.

Compound	BMP-4 gene expression (control = 1) (1 ng c-DNA)	BMP-7 gene expression (control = 1) (1 ng c-DNA)	CD36 gene expression (control = 1) (1 ng c-DNA)	CEBP gene expression (control = 1) (1 ng c-DNA)	CIDEA gene expression (control = 1) (1 ng c-DNA)	DKK2 gene expression (control = 1) (1 ng c-DNA)	FABP-4 gene expression (control = 1) (1 ng c-DNA)	FGF21 gene expression (control = 1) (1 ng c-DNA)	LPL gene expression (control = 1) (1 ng c-DNA)	LRP5 gene expression (control = 1) (1 ng c-DNA)	O3FAR1 gene expression (control = 1) (1 ng c-DNA)	PLIN1 gene expression (control = 1) (1 ng c-DNA)	PPAR-γ gene expression (control = 1) (1 ng c-DNA)	PRDM16 gene expression (control = 1) (1 ng c-DNA)	PpargC1α/PGC-1α gene expression (control = 1) (1 ng c-DNA)	SCD1 gene expression (control = 1) (1 ng c-DNA)	SLC2A4 gene expression (control = 1) (1 ng c-DNA)	WNT5a gene expression (control = 1) (1 ng c-DNA)	WNT6 gene expression (control = 1) (1 ng c-DNA)	WNT10a gene expression (control = 1) (1 ng c-DNA)	further results
COc1ccc2c(c1)c(CC(=O)O)c(C)n2C(=O)c1ccc(Cl)cc1 [Indo, Indomethacin]	0.81	1.62	181.5	1.19	0.95	1.06	162.94	2.33	4.43	1.58	2.26	354.02	0.91	1.58	1.15	1.32	2.09	0.73	0.83	0.92	WNT11 gene expression (control = 1) (1 ng c-DNA): 1.01; BMP-2 gene expression (control = 1) (10 ng c-DNA): 1.96; Adipoq gene expression (control = 1) (10 ng c-DNA): 251.30; CFD gene expression (control = 1) (10 ng c-DNA): 413.23; CIDEA gene expression (control = 1) (10 ng c-DNA): 1.86; Noggin gene expression (control = 1) (10 ng c-DNA): 2.25; O3FAR1 gene expression (control = 1) (10 ng c-DNA): 5.68; UCP-1 gene expression (control = 1) (10 ng c-DNA): 2.18
Pentosan polysulfate	0.77	0.77	2.60	0.63	5.50	0.14	3.83	0.23	2.33	3.27	0.44	17.47	1.55	1.85	2.09	0.85	1.07	0.76	0.16	0.03	WNT11 gene expression (control = 1) (1 ng c-DNA): 0.12; BMP-2 gene expression (control = 1) (10 ng c-DNA): 1.32; Adipoq gene expression (control = 1) (10 ng c-DNA): 32.00; CFD gene expression (control = 1) (10 ng c-DNA): 40.86; CIDEA gene expression (control = 1) (10 ng c-DNA): 9.19; Noggin gene expression (control = 1) (10 ng c-DNA): 3.56; O3FAR1 gene expression (control = 1) (10 ng c-DNA): 1.14; UCP-1 gene expression (control = 1) (10 ng c-DNA): 2.85
